# Structures can show the parent of a compound that is named as a salt. Where two headings read alike, the source gives them in different places.
# Assays:
# [1] = molecular target: T1, neuronal nicotinic acetylcholine receptors (Rattus norvegicus, UniProt P09483+P12390); experiment: Binding of [3H]-cytisine to neuronal nicotinic acetylcholine receptors, crude synaptic membranes from whole rat brain
# T1 construct: crude synaptic membrane preparations from whole rat brain; from tissue; host or cells: whole rat brain, crude synaptic membranes
# Protocol: The In Vitro protocols for determination of nicotinic acetylcholine channel receptor binding potencies of ligands were determined as follows.
# Binding of [^3H]-cytisine ([^3 H]-CYT) to neuronal nicotinic acetylcholine receptors was accomplished using crude synaptic membrane preparations from whole rat brain (Pabreza et al., Molecular Pharmacol., 1990, 39:9). Washed membranes were stored at —80° C. prior to use. Frozen aliquots were slowly thawed and resuspended in 20 volumes of buffer (containing: 120 mM NaCl, 5 mM KCl, 2 mM MgCl2, 2 mM CaCl2 and 50 mM Tris-Cl, pH 7.4 @4° C.). After centrifuging at 20,000×g for 15 minutes, the pellets were resuspended in 30 volumes of buffer.
# The test compounds were dissolved in water to make 10 mM stock solutions. Each solution was then diluted (1:100) with buffer (as above) and further taken through seven serial log dilutions of produce test solution from 10^−5 to 10^−11 M.
# Homogenate (containing 125-150 μg protein) was added to triplicate tubes containing the range of concentrations of test compound described above and [^3H]-CYT (1.25 nM) in a final volume of 500 μL. Samples were incubated for 60 minutes at 4° C., then rapidly filtered through Whatman GF/B filters presoaked in 0.5% polyethyleneimine using 3×4 mL of ice-cold buffer. The filter are counted in 4 mL of Ecolume® (ICN). Nonspecific binding was determined in the presence of 10 μM (−)-nicotine and values were expressed as a percentage of total binding. IC50 values were determined with the RS-1 (BBN) nonlinear least squares curve-fitting program and IC50 values were converted to Ki values using the Cheng and Prusoff correction ([…].
# mouse hot plate paradigm = experiment: Mouse hot plate paradigm (analgesia); type: in vivo; details: ip, 0.5 h, mice, intraperitoneal, dosed 30 minutes prior to testing, hot plate 55° C., increase in tenth jump latency relative to control, read-out: minimally effective dose (MED)
# Protocol: An in vivo protocol was utilized to determine the effectiveness of nicotinic acetylcholine receptor ligands as analgesic agents in the mouse hot plate paradigm.
# Separate groups of mice, (n=8/group) were utilized for each dose group. All drugs were administered by the intraperitoneal route of administration. Test drugs were dissolved in water to make a 6.2 mM stock solution. Animals were dosed with this solution (10 mL/kg body weight) for a 62 micromol/kg dose. Lower doses were administered similarly, following serial dilution of the stock solution in half-log increments. Animals were dosed 30 minutes prior to testing in the hot plate. The hot-plate utilized was an automated analgesia monitor (Model #AHP16AN, Omnitech Electronics, Inc. of Columbus, Ohio). The temperature of the hot plate was maintained at 55° C. and a cut-off time of 180 seconds was utilized. Latency until the tenth jump was recoreded as the dependent measure. An increase in the tenth jump latency relative to the control was considered an effect.
# [2] = [3H]-cytisine 1.25 nM, whole rat brain membranes, 60 minutes at 4° C., Ki from IC50 by Cheng and Prusoff correction, read-out: Average Ki
# T1 sequence (P09483 31-630): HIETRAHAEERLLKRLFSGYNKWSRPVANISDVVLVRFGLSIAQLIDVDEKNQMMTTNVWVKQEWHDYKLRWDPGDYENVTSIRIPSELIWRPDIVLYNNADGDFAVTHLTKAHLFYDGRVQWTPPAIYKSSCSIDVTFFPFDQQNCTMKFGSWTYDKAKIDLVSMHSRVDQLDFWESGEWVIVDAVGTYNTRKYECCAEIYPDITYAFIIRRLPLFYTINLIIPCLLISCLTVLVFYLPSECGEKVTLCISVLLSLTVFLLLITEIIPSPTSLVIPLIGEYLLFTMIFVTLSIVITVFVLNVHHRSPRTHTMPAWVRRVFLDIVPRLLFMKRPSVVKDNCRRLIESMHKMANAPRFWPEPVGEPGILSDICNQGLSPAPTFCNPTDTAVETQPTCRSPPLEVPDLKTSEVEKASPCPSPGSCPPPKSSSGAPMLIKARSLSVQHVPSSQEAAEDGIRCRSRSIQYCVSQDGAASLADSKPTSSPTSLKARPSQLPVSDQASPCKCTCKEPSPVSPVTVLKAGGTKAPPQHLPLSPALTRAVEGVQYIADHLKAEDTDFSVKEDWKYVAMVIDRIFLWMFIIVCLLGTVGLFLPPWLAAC
# T1 sequence (P12390 25-500): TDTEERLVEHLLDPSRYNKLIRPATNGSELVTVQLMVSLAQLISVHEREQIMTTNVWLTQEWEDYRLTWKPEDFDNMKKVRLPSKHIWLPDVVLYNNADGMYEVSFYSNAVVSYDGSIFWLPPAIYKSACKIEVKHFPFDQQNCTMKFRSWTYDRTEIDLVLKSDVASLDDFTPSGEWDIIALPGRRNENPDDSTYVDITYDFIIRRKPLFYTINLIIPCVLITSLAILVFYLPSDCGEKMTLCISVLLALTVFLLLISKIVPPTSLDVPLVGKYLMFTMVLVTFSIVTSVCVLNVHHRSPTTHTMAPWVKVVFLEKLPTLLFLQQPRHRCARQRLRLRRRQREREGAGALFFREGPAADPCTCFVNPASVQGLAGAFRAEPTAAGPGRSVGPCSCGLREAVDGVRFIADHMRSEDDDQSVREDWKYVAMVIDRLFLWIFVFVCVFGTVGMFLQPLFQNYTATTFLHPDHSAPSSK
Compound,Ki [1] [nM],minimal effective dose (mouse hot plate paradigm) [µmol/kg],"Ki [1, 2] [nM]"
"Cc1cc(N2CC[C@H](N)C2)cnc1Cl [Example 17, (3S)-1-(6-chloro-5-methyl-3-pyridinyl)pyrrolidinylamine dihydrochloride]",0.03,6.2,
"Cc1cc(N2CC[C@H](N)C2)cnc1F [Example 25, (3S)-1-(6-fluoro-5-methyl-3-pyridinyl)pyrrolidinylamine hydrochloride]",0.34,6.2,
"N[C@H]1CCN(c2cncc([N+](=O)[O-])c2)C1 [Example 29, (3S)-1-(5-nitro-3-pyridinyl)pyrrolidinylamine fumarate]",0.7,19,
"N[C@H]1CCCN(c2cccnc2)C1 [Example 41, (3S)-1-(3-pyridinyl)piperidinylamine bis(4-methylbenzenesulfonate)]",0.89,19,
"CN[C@H]1CCN(c2cncc(C(F)(F)F)c2)C1 [Example 14, N-methyl-N-{(3S)-1-[5-(trifluoromethyl)-3-pyridinyl]pyrrolidinyl}amine hydrochloride]",6.3,,
"Cc1cc(N2CC[C@@H](N)C2)cnc1Cl [Example 15, (3R)-1-(6-chloro-5-methyl-3-pyridinyl)pyrrolidinylamine hydrochloride]",0.03,6.2,
"CN(C)[C@@H]1CCN(c2ccc(Cl)nc2)C1 [Example 6, N-[(3R)-1-(6-chloro-3-pyridinyl)pyrrolidinyl]-N,N-dimethylamine 4-methylbenzenesulfonate]",100,,
"CN[C@@H]1CCN(c2cncc(C(F)(F)F)c2)C1 [Example 12, N-methyl-N-{(3R)-1-[5-(trifluoromethyl)-3-pyridinyl]pyrrolidinyl}amine hydrochloride]",,,114
"NC1CCN(c2cccnc2)C1 (centres unmarked) [Example 10, 1-(3-pyridinyl)-3-pyrrolidinylamine bis(4-methylbenzenesulfonate)]",0.15,,
"CN[C@H]1CCN(c2ccc(Cl)nc2)C1 [Example 1, N-[(3S)-1-(6-chloro-3-pyridinyl)pyrrolidinyl]-N-methylamine hydrochloride]",44,62,
"N[C@H]1CCCN(c2ccc(Cl)nc2)C1 [Example 45, (3S)-1-(6-chloro-3-pyridinyl)piperidinylamine bis(4-methylbenzenesulfonate)]",0.35,0.62,
"Cc1cc(N2CC[C@@H](N)C2)cnc1F [Example 27, (3R)-1-(6-fluoro-5-methyl-3-pyridinyl)pyrrolidinylamine hydrochloride]",0.44,,
"CN[C@H]1CCCN(c2cccnc2)C1 [Example 42, N-methyl-N-[(3S)-1-(3-pyridinyl)piperidin-3-yl]amine bis(4-methylbenzenesulfonate)]",83,62,
"CN(C)[C@H]1CCN(c2ccc(Cl)nc2)C1 [Example 3, N-[(3S)-1-(6-chloro-3-pyridinyl)pyrrolidinyl]-N,N-dimethylamine 4-methylbenzenesulfonate]",61,62,
"N[C@@H]1CCCN(c2ccc(Cl)nc2)C1 [Example 47, (3R)-1-(6-chloro-3-pyridinyl)piperidin-3-ylamine bis(4-methylbenzenesulfonate)]",0.38,1.9,
"N[C@@H]1CCN(c2cncc(C(F)(F)F)c2)C1 [Example 11, (3R)-1-[5-(trifluoromethyl)-3-pyridinyl]pyrrolidinylamine dihydrochloride]",3,,
"CN[C@H]1CCN(c2cnc(Cl)c(OC)c2)C1 [Example 24, N-[(3S)-1-(6-chloro-5-methoxy-3-pyridinyl)pyrrolidinyl]-N-methylamine dihydrochloride]",4.1,62,
"COc1cc(N2CC[C@H](N)C2)cnc1Cl [Example 23, (3S)-1-(6-chloro-5-methoxy-3-pyridinyl)pyrrolidinylamine dihydrochloride]",0.13,62,
"CN[C@@H]1CCN(c2ccc(Cl)nc2)C1 [Example 5, N-[(3R)-1-(6-chloro-3-pyridinyl)pyrrolidinyl]-N-methylamine hydrochloride]",5.5,62,

Compound,Ki [1] [nM],minimal effective dose (mouse hot plate paradigm) [µmol/kg],"Ki [1, 2] [nM]"
"N[C@@H]1CCCN(c2cccnc2)C1 [Example 43, (3R)-1-(3-pyridinyl)piperidinylamine bis(4-methylbenzenesulfonate)]",1.1,0.62,
"N[C@H]1CCN(c2ccc(Cl)nc2)C1 [Example 2, (3S)-1-(6-chloro-3-pyridinyl)pyrrolidinylamine dihydrochloride]",0.1,6.2,
"N[C@@H]1CCN(c2ccc(Cl)nc2)C1 [Example 4, (3R)-1-(6-chloro-3-pyridinyl)pyrrolidinylamine 4-methylbenzenesulfonate]",0.22,1.9,
"NC1CCCN(c2ccc(Cl)nc2)C1 (centres unmarked) [Example 38, 1-(6-chloro-3-pyridinyl)-3-piperidinylamine 4-methylbenzenesulfonate]",0.51,6.2,
"N[C@H]1CCN(c2cncc(C(F)(F)F)c2)C1 [Example 13, (3S)-1-[5-(trifluoromethyl)-3-pyridinyl]pyrrolidinylamine dihydrochloride]",1,,
"N[C@H]1CCN(c2cnc(Cl)c(Cl)c2)C1 [Example 19, (3S)-1-(5,6-dichloro-3-pyridinyl)pyrrolidinylamine dihydrochloride]",0.05,6.2,
"C[C@H]1CCN(c2ccc(Cl)nc2)C[C@H]1N (relative stereo) [Example 39, (cis) 1-(6-chloro-3-pyridinyl)-4-methyl-3-piperidinylamine hydrochloride]",85,,
"N[C@H]1CCN(c2cccnc2)C1 [Example 8, (3S)-1-(3-pyridinyl)pyrrolidinylamine 4-methylbenzenesulfonate]",0.23,19,
"N[C@@H]1CCN(c2cncc([N+](=O)[O-])c2)C1 [Example 31, (3R)-1-(5-nitro-3-pyridinyl)pyrrolidinylamine fumarate]",3.5,6.2,
"CN[C@H]1CCN(c2cnc(F)c(C)c2)C1 [Example 26, N-[(3S)-1-(6-fluoro-5-methyl-3-pyridinyl)pyrrolidinyl]-N-methylamine dihydrochloride]",1.5,,
"CN[C@H]1CCN(c2cccnc2)C1 [Example 9, N-methyl-N-[(3S)-1-(3-pyridinyl)pyrrolidinyl]amine dihydrochloride]",2,62,
"N[C@@H]1CCN(c2cccnc2)[C@@H]1CCl [Example 51, (2S,3R)-2-(chloromethyl)-1-(3-pyridinyl)pyrrolidinylamine dihydrochloride]",714,,
"NC1CN(c2ccc(Cl)nc2)C1 [Example 50, 1-(6-chloro-3-pyridinyl)-3-azetidinylamine 4-methylbenzenesulfonate]",,,174
"CN[C@H]1CCN(c2cncc([N+](=O)[O-])c2)C1 [Example 30, N-methyl-N-[(3S)-1-(5-nitro-3-pyridinyl)pyrrolidinyl]amine fumarate]",12,,
"CN[C@@H]1CCN(c2cnc(F)c(C)c2)C1 [Example 28, N-[(3R)-1-(6-fluoro-5-methyl-3-pyridinyl)pyrrolidinyl]-N-methylamine dihydrochloride]",39,,
"C[C@@H]1CCN(c2ccc(Cl)nc2)C[C@H]1N (relative stereo) [Example 40, (trans) 1-(6-chloro-3-pyridinyl)-4-methyl-3-piperidinylamine hydrochloride]",5.4,,
"CN[C@@H]1CCCN(c2cccnc2)C1 [Example 44, N-methyl-N-[(3R)-1-(3-pyridinyl)piperidinyl]amine dihydrochloride]",205,,
"CN[C@@H]1CCN(c2cncc([N+](=O)[O-])c2)C1 [Example 32, N-methyl-N-[(3R)-1-(5-nitro-3-pyridinyl)pyrrolidinyl]amine fumarate]",195,,
"NC1CCN(c2ccc(Cl)nc2)CC1 [Example 37, 1-(6-chloro-3-pyridinyl)-4-piperidinylamine 4-methylbenzenesulfonate]",,,92

# Reference: patent US7332504B2, “Heterocyclic substituted aminoazacycles useful as central nervous system agents” (Abbott Laboratories, priority 1999, dated 2008)
